Test results taken from ChEMBL document CHEMBL3046364, “Influence of 1, 3, 5-Triazine Compounds on Ammonia Oxidizing Activity of Cell-Free Extracts from Nitrosomonas europaea” (J Pestic Sci, 2002).

System: Nitrosomonas europaea
Assay: Inhibition of ammonia oxidation in cell suspensions of Nitrosomonas europaea ATCC 25978 assessed as oxygen consumption
Format: functional, organism-based
Settings: read-out: pI50 (converted)

SMILES | IC50
CCNc1nc(C)nc(C(Cl)(Cl)Cl)n1 | 2 µM
CCCCCCCCCCCCCCNc1nc(C)nc(C(Cl)(Cl)Cl)n1 | 21.9 µM
Nc1nc(C(Cl)(Cl)Cl)nc(C(Br)(Br)Br)n1 | 0.0759 µM
Cc1nc(N)nc(C(Cl)(Cl)Cl)n1 | 4.9 µM
CNc1nc(C)nc(C(Cl)(Cl)Cl)n1 | 3.55 µM
